The source of these data is US20180049996A1, “THERAPEUTIC AGENT FOR CHRONIC RESPIRATORY DISEASE AND COMPOSITION FOR INHIBITING CARDIAC FIBROSIS” (NIPPON HYPOX LABORATORIES INCORPORATED, priority 2015, published 2018).

One test concerns IgE. Briefly: Total content of IgE in serum, ovalbumin asthma model. Conditions: day 25, compared to OVA group. In kind it is in vivo, BALB/c female mice. The procedure: 6 week old BALB/c female mice were purchased and the mice were divided into 5 groups with 5 animals per group shown in Table 3 below after habituation breeding of about 2 weeks.
The test was conducted on the schedule of sensitization, causing diseases and administration of test materials shown in FIG. 12. “IP” in FIG. 12 refers to ovalbumin sensitization treatment by the intraperitoneal administration of ovalbumin/aluminum hydroxide, and “IH” refers to inhalation exposure treatment of ovalbumin, and “PO” refers to the administration of the test materials. Specifically, 200 μL of PBS (pH 7.4) emulsified by the addition of 20 μg ovalbumin and 2 mg aluminum hydroxide as an adjuvant was intraperitoneally administered to all mice in 4 groups except the normal control group (the initial sensitization, day 1 of the test). Then, after 2 weeks (day 14 of the test), the second sensitization treatment was conducted in the same way as the initial sensitization. […]
On day 25 of the test, the total contents of IgE and contents of ovalbumin-specific IgE in serums were measured using blood collected from orbital sinuses of the mice. An ELISA kit for IgE measurement (a product from BioLegend, Inc.) was used for the measurement and the contents were measured at wavelength of 450 nm using a micro plate reader (a product from Bio-Rad Laboratories, Inc.).

Test [1] concerns Lung Inflammation Induced by Tobacco Smoke. Briefly: BAL inflammatory cell numbers, lung inflammation induced by tobacco smoke (COPD model). In kind it is in vivo, C57BL/6N mice. The note with it: HTHQ 10 and 20 mg/kg/day oral; tobacco smoke 10 days + LPS; compared to COPD model group. The procedure:
6 week old male SPF C57BL/6N mice, 20 to 25 g of body weight, were purchased from CORETEC INC. (South Korea).
The tests were conducted as follows. The mice in the COPD (chronic obstructive pulmonary disease) model group of the test groups were exposed to tobacco smoke for 1 hour per day (8 cigarettes/day) for 10 days and LPS (5 μg/50 μL/mouse) was intranasally administered to the mice on day 8 after the start of the tests. Roflumilast, the positive control substance, was orally administered to the mice in the positive control substance-administered group at 10 mg/kg body weight/day, and then they were exposed to tobacco smoke for 10 days starting from 1 hour after the administration of roflumilast, and LPS (5 μg/50 μL/mouse) was intranasally administered to the mice on day 8 after the start of the tests. […]
The mice in the test groups were euthanized 72 hours after the LPS administration and the mice in the normal control group were euthanized on day 11 after the start of the tests by intraperitoneal injection of pentobarbital (Hanrimu pharmaceutical, South Korea) at 50 mg/kg and then the bronchi were excised. […] After preparing slide samples from 100 μL of BAL cell fluid using Cytospin (4° C., 1000 rpm×5 min), the cell numbers of inflammatory cells (neutrophil, macrophages) present in the BAL fluid were counted using a Diff-Quik stain kit.

SMILES strings stand for the structures.

For `CCCCCCOc1cc(C)c(O)c(C)c1C` [HTHQ, 2,3,5-trimethylhydroquinone-1-hexyl ether], the “total amount of IgE in serum” value in the test on IgE (HTHQ 20 mg/kg/day oral (HTHQ20)) is reported as “significant reduction”; in the test with IgE (HTHQ 40 mg/kg/day oral (HTHQ40)) it was “a declining trend”. In addition, the “infiltration of inflammatory cells (neutrophil, macrophages) in BAL fluid” value in test [1] is “effectively reduced”.
